Laboratory results: ChEMBL document CHEMBL4706771, “Discovery of Orally Bioavailable Ligand Efficient Quinazolindiones as Potent and Selective Tankyrases Inhibitors” (ACS Med Chem Lett, 2021)

Assays:
[1] = molecular target: T1, Poly [ADP-ribose] polymerase tankyrase-1 (Homo sapiens, UniProt O95271); experiment: Inhibition of human TNKS1 incubated for 1 to 2 hrs by fluorescence polarization assay
T1 sequence (O95271 whole entry): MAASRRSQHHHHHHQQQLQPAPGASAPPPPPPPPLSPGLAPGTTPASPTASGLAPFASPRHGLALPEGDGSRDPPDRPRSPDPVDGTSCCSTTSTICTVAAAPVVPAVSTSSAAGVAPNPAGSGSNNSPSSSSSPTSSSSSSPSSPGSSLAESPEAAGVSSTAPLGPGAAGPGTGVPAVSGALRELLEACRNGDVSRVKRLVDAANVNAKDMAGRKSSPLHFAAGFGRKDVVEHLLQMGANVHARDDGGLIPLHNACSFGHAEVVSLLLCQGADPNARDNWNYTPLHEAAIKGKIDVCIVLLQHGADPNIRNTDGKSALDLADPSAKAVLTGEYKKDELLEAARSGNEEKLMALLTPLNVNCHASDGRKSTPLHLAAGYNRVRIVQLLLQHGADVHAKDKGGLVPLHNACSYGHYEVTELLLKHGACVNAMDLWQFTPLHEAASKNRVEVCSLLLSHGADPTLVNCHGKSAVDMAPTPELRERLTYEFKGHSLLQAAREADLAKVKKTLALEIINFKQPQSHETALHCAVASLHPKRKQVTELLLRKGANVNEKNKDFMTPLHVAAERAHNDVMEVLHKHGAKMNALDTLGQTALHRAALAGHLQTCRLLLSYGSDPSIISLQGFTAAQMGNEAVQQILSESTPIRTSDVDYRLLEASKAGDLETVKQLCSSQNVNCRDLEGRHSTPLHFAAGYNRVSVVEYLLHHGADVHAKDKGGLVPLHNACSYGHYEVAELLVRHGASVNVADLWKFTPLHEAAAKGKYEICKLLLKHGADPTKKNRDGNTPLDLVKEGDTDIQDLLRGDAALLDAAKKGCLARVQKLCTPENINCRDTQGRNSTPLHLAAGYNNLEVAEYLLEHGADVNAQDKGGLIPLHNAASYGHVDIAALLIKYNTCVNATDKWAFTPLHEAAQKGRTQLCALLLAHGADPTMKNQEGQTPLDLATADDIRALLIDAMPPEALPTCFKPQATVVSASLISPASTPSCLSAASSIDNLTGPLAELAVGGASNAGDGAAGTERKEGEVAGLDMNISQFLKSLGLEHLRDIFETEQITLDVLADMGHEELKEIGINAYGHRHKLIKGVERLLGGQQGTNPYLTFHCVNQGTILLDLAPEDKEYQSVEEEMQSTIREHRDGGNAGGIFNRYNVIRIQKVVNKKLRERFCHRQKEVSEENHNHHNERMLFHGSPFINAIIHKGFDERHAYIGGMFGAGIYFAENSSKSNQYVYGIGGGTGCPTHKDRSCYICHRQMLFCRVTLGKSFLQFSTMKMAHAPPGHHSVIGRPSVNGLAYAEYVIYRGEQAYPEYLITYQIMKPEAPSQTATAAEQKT

[2] = Inhibition of Wnt/beta-catenin (unknown origin) expressed in human HEK293 cells expressing MSRII transfected with DNA-LF2K incubated for 24 hrs by luciferase reporter gene assay; conditions: HEK293, 24 h
[3] = molecular target: T2, Poly [ADP-ribose] polymerase tankyrase-2 (Homo sapiens, UniProt Q9H2K2); experiment: Inhibition of human TNKS2 incubated for 1 to 2 hrs by fluorescence polarization assay
T2 sequence (Q9H2K2 whole entry): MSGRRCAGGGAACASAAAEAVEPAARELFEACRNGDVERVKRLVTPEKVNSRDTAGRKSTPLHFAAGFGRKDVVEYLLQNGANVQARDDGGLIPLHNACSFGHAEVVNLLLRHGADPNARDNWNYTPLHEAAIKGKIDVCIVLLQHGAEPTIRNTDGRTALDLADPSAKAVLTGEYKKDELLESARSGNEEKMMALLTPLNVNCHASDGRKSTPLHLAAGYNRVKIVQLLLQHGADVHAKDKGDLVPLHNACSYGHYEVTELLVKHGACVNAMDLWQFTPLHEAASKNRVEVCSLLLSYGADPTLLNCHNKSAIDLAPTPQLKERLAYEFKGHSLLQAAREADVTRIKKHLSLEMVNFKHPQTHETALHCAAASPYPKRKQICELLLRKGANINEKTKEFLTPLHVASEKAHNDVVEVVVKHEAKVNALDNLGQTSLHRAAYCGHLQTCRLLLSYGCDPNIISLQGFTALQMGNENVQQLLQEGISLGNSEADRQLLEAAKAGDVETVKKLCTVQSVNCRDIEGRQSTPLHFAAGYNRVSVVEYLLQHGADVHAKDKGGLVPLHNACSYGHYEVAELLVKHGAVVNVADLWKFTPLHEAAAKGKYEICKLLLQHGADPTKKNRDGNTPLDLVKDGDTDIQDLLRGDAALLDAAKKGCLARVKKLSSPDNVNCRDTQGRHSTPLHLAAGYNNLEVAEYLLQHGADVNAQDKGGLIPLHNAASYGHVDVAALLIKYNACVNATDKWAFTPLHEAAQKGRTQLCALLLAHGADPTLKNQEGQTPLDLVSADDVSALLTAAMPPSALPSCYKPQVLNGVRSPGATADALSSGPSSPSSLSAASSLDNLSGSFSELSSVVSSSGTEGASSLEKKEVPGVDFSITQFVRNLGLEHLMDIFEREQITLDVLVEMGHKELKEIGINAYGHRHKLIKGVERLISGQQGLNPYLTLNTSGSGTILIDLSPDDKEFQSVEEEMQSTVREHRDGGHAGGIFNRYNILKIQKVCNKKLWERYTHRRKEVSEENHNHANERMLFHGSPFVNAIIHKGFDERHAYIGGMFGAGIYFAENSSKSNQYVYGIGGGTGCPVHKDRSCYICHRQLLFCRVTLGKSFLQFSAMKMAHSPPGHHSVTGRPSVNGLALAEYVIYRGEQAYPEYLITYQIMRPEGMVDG

[4] = Clearance in Sprague-Dawley rat at 10 mg/kg, po or 0.5 mg/kg, iv; assay type: ADME, organism-based; conditions: in vivo
[5] = Volume of distribution in Sprague-Dawley rat at 10 mg/kg, po or 0.5 mg/kg, iv; assay type: ADME, organism-based; conditions: in vivo
[6] = Half life in Sprague-Dawley rat at 10 mg/kg, po or 0.5 mg/kg, iv; assay type: ADME, organism-based; conditions: in vivo
[7] = Dose normalised AUC in Sprague-Dawley rat at 10 mg/kg, po; assay type: ADME, organism-based; conditions: in vivo
[8] = Oral bioavailability in Sprague-Dawley rat at 10 mg/kg; assay type: ADME, organism-based; conditions: in vivo
[9] = Clearance in Sprague-Dawley rat at 5 mg/kg, po or 2 mg/kg, iv; assay type: ADME, organism-based; conditions: in vivo
[10] = Volume of distribution in Sprague-Dawley rat at 5 mg/kg, po or 2 mg/kg, iv; assay type: ADME, organism-based; conditions: in vivo
[11] = Half life in Sprague-Dawley rat at 5 mg/kg, po or 2 mg/kg, iv; assay type: ADME, organism-based; conditions: in vivo
[12] = Dose normalised AUC in Sprague-Dawley rat at 5 mg/kg, po; assay type: ADME, organism-based; conditions: in vivo
[13] = Oral bioavailability in Sprague-Dawley rat at 5 mg/kg; assay type: ADME, organism-based; conditions: in vivo
[14] = Clearance in Sprague-Dawley rat at 0.5 mg/kg, iv; assay type: ADME, organism-based; conditions: in vivo
[15] = Volume of distribution in Sprague-Dawley rat at 0.5 mg/kg, iv; assay type: ADME, organism-based; conditions: in vivo
[16] = Half life in Sprague-Dawley rat at 0.5 mg/kg, iv; assay type: ADME, organism-based; conditions: in vivo

SMILES	IC50 [1]	IC50 [2]	also measured
N#Cc1ccccc1Cn1c(=O)n(C[C@H]2CC[C@H](C(=O)Nc3ccncc3)CC2)c(=O)c2nc[nH]c21	100 nM	251 nM	
N#Cc1c(Cn2c(=O)n(C[C@H]3CC[C@H](C(=O)Nc4ccncc4)CC3)c(=O)c3c(Cl)cccc32)cccc1C(F)(F)F	3.2 nM	6.3 nM	
Cc1cccc2c1c(=O)n(C[C@H]1CC[C@H](C(=O)Nc3ccncc3)CC1)c(=O)n2Cc1cccc(C(F)(F)F)c1C#N	3.2 nM	39.8 nM	
N#Cc1ccccc1Cn1c(=O)n(C[C@H]2CC[C@H](C(=O)Nc3ccncc3)CC2)c(=O)c2ccncc21	63.1 nM	25.1 nM	
Cc1ccc2c(c1C)c(=O)n(C[C@H]1CC[C@H](C(=O)O)CC1)c(=O)n2Cc1cccc(C(F)(F)F)c1C#N	15.8 nM	251 nM	
Cc1cccc2c1c(=O)n(C[C@H]1CC[C@H](C(=O)Nc3cnn(C)c3)CC1)c(=O)n2Cc1cccc(C(F)(F)F)c1C#N	2.5 nM	10 nM	
N#Cc1c(Cn2c(=O)n(C[C@H]3CC[C@H](C(=O)O)CC3)c(=O)c3c(F)cccc32)cccc1C(F)(F)F	39.8 nM	63.1 nM	
Cc1cccc2c1c(=O)n(C[C@H]1CC[C@H](C(=O)Nc3ccnnc3)CC1)c(=O)n2Cc1cccc(C(F)(F)F)c1C#N	2.5 nM	31.6 nM	
N#Cc1ccccc1Cn1c(=O)n(C[C@H]2CC[C@H](C(=O)NCc3ccccc3)CC2)c(=O)c2ccccc21	631 nM	> 5000 nM	IC50 [3]: 7940 nM
Cc1ccc(NC(=O)[C@H]2CC[C@H](Cn3c(=O)c4c(C)cccc4n(Cc4cccc(C(F)(F)F)c4C#N)c3=O)CC2)cn1	4 nM	15.8 nM	
N#Cc1ccccc1Cn1c(=O)n(C[C@H]2CC[C@H](C(=O)Nc3ccncc3)CC2)c(=O)c2ccccc21	4 nM	6.3 nM	clearance [4]: 91.2 mL/min/kg; Vd [5]: 4.42 L/kg; half-life [6]: 43.2 min; AUC/dose [7]: 37.7 ng·h/mL; bioavailability [8]: 3.6%
COc1cccc2c1c(=O)n(C[C@H]1CC[C@H](C(=O)O)CC1)c(=O)n2Cc1cccc(C(F)(F)F)c1C#N	8.1 nM	20 nM	
N#Cc1c(Cn2c(=O)n(C[C@H]3CC[C@H](C(=O)Nc4ccncc4)CC3)c(=O)c3c(F)cccc32)cccc1C(F)(F)F	4 nM	15.8 nM	
N#Cc1c(Cn2c(=O)n(C[C@H]3CC[C@H](C(=O)Nc4ccncc4)CC3)c(=O)c3ccccc32)cccc1C(F)(F)F	2 nM	12.6 nM	
Cc1cccc(Cn2c(=O)n(C[C@H]3CC[C@H](C(=O)Nc4ccncc4)CC3)c(=O)c3c(C)cccc32)c1C#N	2 nM	31.6 nM	
N#Cc1ccccc1Cn1c(=O)n(C[C@H]2CC[C@H](C(=O)Nc3ccncc3)CC2)c(=O)c2ncccc21	126 nM	79.4 nM	
N#Cc1c(Cn2c(=O)n(C[C@H]3CC[C@H](C(=O)O)CC3)c(=O)c3ccccc32)cccc1C(F)(F)F		63.1 nM	clearance [9]: 1.88 mL/min/kg; Vd [10]: 0.81 L/kg; half-life [11]: 312 min; AUC/dose [12]: 1293 ng·h/mL; bioavailability [13]: 14.5%
Cc1c(F)ccc2c1c(=O)n(C[C@H]1CC[C@H](C(=O)O)CC1)c(=O)n2Cc1cccc(C(F)(F)F)c1C#N		20 nM	
Cc1ccc2c(c1C)c(=O)n(C[C@H]1CC[C@H](C(=O)Nc3ccncc3)CC1)c(=O)n2Cc1cccc(C(F)(F)F)c1C#N	6.3 nM	25.1 nM	
Cc1cccc2c1c(=O)n(C[C@H]1CC[C@H](C(=O)Nc3ccncc3)CC1)c(=O)n2Cc1cccc(Cl)c1C#N	2 nM	6.3 nM	clearance [14]: 45.9 mL/min/kg; Vd [15]: 2.1 L/kg; half-life [16]: 37.2 min
Cc1c(C(N)=O)ccc2c1c(=O)n(C[C@H]1CC[C@H](C(=O)Nc3ccncc3)CC1)c(=O)n2Cc1cccc(C(F)(F)F)c1C#N	25.1 nM	63.1 nM	
COc1cccc2c1c(=O)n(C[C@H]1CC[C@H](C(=O)Nc3ccncc3)CC1)c(=O)n2Cc1cccc(C(F)(F)F)c1C#N	4 nM	12.6 nM	
Cc1cccc2c1c(=O)n(C[C@H]1CC[C@H](C(=O)Nc3ccncc3)CC1)c(=O)n2Cc1ccccc1C#N	3.2 nM	10 nM	
Cc1c(F)ccc2c1c(=O)n(C[C@H]1CC[C@H](C(=O)Nc3ccncc3)CC1)c(=O)n2Cc1cccc(C(F)(F)F)c1C#N	3.2 nM	15.8 nM	
N#Cc1c(Cn2c(=O)n(C[C@H]3CC[C@H](C(=O)O)CC3)c(=O)c3c(Cl)cccc32)cccc1C(F)(F)F	15.8 nM	63.1 nM	
